{"source": "patent US5286648A", "about": "“A84575 antibiotics” (Eli Lilly and Company, priority 1991, dated 1994)", "key": {"[1]": {"tested_on": "culture A84575", "assay": "Resistance of culture A84575 to antibiotics (antibiotic sensitivity discs, ISP No. 2 agar)", "assay_type": "cell-based, Streptosporangium carneum", "conditions": "disc", "protocol": "Resistance to antibiotics was measured by padding antibiotic sensitivity discs (Difco) onto the surface of seeded ISP No. 2 agar plates. Resistance was scored as (+) when no zone of inhibition was observed, and as (-) when a zone of inhibition was observed."}, "[2]": {"tested_on": "Streptococcus D", "assay": "In vitro antibacterial activity (Table 5), MIC", "assay_type": "cell-based"}, "[3]": {"tested_on": "Staphylococcus aureus", "assay": "In vitro antibacterial activity (Table 5), MIC", "assay_type": "cell-based"}, "[4]": {"tested_on": "Streptococcus pneumoniae", "assay": "In vitro antibacterial activity (Table 5), MIC", "assay_type": "cell-based, S. pneumoniae", "conditions": "strain PARK"}, "[5]": {"tested_on": "Streptococcus A", "assay": "In vitro antibacterial activity (Table 5), MIC", "assay_type": "cell-based", "conditions": "strain C203"}, "[6]": {"tested_on": "Staphylococcus epidermidis", "assay": "In vitro antibacterial activity (Table 5), MIC", "assay_type": "cell-based, S. epidermidis"}, "[7]": {"tested_on": "Haemophilus influenzae", "assay": "In vitro antibacterial activity (Table 5), MIC", "assay_type": "cell-based"}, "[8]": {"tested_on": "culture A84575", "assay": "Resistance of culture A84575 to antibiotics (antibiotic sensitivity discs, ISP No. 2 agar)", "assay_type": "cell-based, Streptosporangium carneum", "conditions": "50 μg/mL"}}, "note": "Where two headings read alike, the source gives them in different places. Where a SMILES comes first, the peptide text is derived from it. Bridges are numbered along the chain shown (N, C = ends). [ ]: non-standard residue; d: D form. The star is where a group is joined. Ileψ(thiazoline)Cys = CC[C@H](C)[C@H](N)C1=N[C@H](C(=O)*)CS1; dOrn = NCCC[C@@H](N)C(=O)O"}
{"compound": "CC[C@H](C)[C@H](N)C1=N[C@H](C(=O)N[C@@H](CC(C)C)C(=O)N[C@H](CCC(=O)O)C(=O)N[C@H](C(=O)N[C@H]2CCCCNC(=O)[C@H](CC(N)=O)NC(=O)[C@@H](CC(=O)O)NC(=O)[C@H](Cc3cnc[nH]3)NC(=O)[C@@H](Cc3ccccc3)NC(=O)[C@H]([C@@H](C)CC)NC(=O)[C@@H](CCCN)NC2=O)[C@@H](C)CC)CS1", "note": "[bacitracin] ({Ileψ(thiazoline)Cys}-L[dE]IK[dOrn]I[dF]H[dD]N; lactam 4-C)", "values": [{"measurement": "Resistance to antibiotics", "setting": "[1]; 10 units", "result": "resistant"}]}
{"compound": "CO[C@H]1/C=C/O[C@@]2(C)Oc3c(C)c(O)c4c(O)c(c(/C=N/N5CCN(C)CC5)c(O)c4c3C2=O)NC(=O)/C(C)=C\\C=C\\[C@H](C)[C@H](O)[C@@H](C)[C@@H](O)[C@@H](C)[C@H](OC(C)=O)[C@@H]1C", "note": "[rifampin]", "values": [{"measurement": "Resistance to antibiotics", "setting": "[1]; 5 μm", "result": "sensitive"}]}
{"compound": "CO[C@H]1C[C@H](O[C@H]2[C@H](C)[C@@H](O[C@@H]3O[C@H](C)C[C@H](N(C)C)[C@H]3O)[C@@H](C)C[C@@]3(CO3)C(=O)[C@H](C)[C@@H](O)[C@@H](C)[C@@H](C)OC(=O)[C@@H]2C)O[C@@H](C)[C@@H]1O", "note": "[oleandomycin]", "values": [{"measurement": "Resistance to antibiotics", "setting": "[1]; 15 μm", "result": "sensitive"}]}
{"compound": "CO/N=C(\\C(=O)N[C@@H]1C(=O)N2C(C(=O)O)=C(COC(C)=O)CS[C@H]12)c1csc(N)n1", "note": "[Standard]", "values": [{"measurement": "MIC", "setting": "[2]; strain 2041", "result": 128, "unit": "µg/mL"}, {"measurement": "MIC", "setting": "[2]; strain X66", "result": "> 128", "unit": "µg/mL"}, {"measurement": "MIC", "setting": "[3]", "result": 16, "unit": "µg/mL"}, {"measurement": "MIC", "setting": "[3]; strain U41, read-out: MIC", "result": 4, "unit": "µg/mL"}, {"measurement": "MIC", "setting": "[3]; strain X1.1, read-out: MIC", "result": 2, "unit": "µg/mL"}, {"measurement": "MIC", "setting": "[3]; strain X400, read-out: MIC", "result": 128, "unit": "µg/mL"}, {"measurement": "MIC", "setting": "[4]", "result": 0.015, "unit": "µg/mL"}, {"measurement": "MIC", "setting": "[5]", "result": 0.015, "unit": "µg/mL"}, {"measurement": "MIC", "setting": "[6]; strain 222", "result": 2, "unit": "µg/mL"}, {"measurement": "MIC", "setting": "[6]; strain 270", "result": 8, "unit": "µg/mL"}, {"measurement": "MIC", "setting": "[7]; Haemophilus influenzae, strain C.L., sensitive strain, read-out: MIC", "result": 0.015, "unit": "µg/mL"}, {"measurement": "MIC", "setting": "[7]; strain 76, resistant strain", "result": ".015 µg/mL"}]}
{"compound": "lysozyme", "values": [{"measurement": "Sensitivity to lysozyme", "setting": "[8]", "result": "sensitive"}]}
{"compound": "CC1(C)S[C@@H]2[C@H](NC(=O)Cc3ccccc3)C(=O)N2[C@H]1C(=O)O", "note": "[penicillin G]", "values": [{"measurement": "Resistance to antibiotics", "setting": "[1]; 10 units", "result": "resistant"}]}
{"compound": "CCC[C@@H]1C[C@@H](C(=O)N[C@@H]([C@H]2O[C@H](SC)[C@H](O)[C@@H](O)[C@H]2O)[C@@H](C)O)N(C)C1", "note": "[lincomycin]", "values": [{"measurement": "Resistance to antibiotics", "setting": "[1]; 2 μm", "result": "resistant"}]}
